ChEMBL document CHEMBL1201862, “PubChem BioAssay data set” (2004)
Calls of active or inactive are those of the source. For most assays here, no stated cut-off is given here; in the data, actives have a measured EC50 and inactives only a lower limit.

Legend:
Estrogen receptor beta [1] = target: T1, Estrogen receptor beta (Homo sapiens, UniProt Q92731);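 further: recombinant ER-beta bound to coactivator SRC1 peptide in presence of estradiol agonist; inhibitors block coactivator peptide binding and lower the FRET signal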
Estrogen receptor beta [2] = target: T1, Estrogen receptor beta; experiment: ERβ–SRC-3 coactivator interaction inhibitors, confirmation, orthogonal assay, biochemical, ELISA, streptavidin-HRP readout (AID 1060)
Estrogen receptor = target: T2, Estrogen receptor (Homo sapiens, UniProt P03372);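 further: potency for inhibiting coactivator peptide recruitment to the receptor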
T2 sequence (P03372 whole entry): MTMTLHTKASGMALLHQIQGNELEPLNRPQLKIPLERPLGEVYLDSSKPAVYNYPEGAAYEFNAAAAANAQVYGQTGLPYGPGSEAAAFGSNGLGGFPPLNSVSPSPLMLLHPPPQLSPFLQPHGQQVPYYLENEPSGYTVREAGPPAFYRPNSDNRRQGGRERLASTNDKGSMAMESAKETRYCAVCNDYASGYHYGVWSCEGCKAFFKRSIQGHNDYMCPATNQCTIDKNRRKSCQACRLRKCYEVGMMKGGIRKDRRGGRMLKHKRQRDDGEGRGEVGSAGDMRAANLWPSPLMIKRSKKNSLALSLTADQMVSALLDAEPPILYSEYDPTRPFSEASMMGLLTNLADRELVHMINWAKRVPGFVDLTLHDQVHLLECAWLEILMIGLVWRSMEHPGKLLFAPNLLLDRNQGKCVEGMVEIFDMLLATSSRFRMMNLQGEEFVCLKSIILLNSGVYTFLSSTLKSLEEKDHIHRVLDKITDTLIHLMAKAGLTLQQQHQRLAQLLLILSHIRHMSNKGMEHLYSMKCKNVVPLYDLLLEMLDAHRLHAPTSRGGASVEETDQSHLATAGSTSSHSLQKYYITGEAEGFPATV

[3] = NIH-3T3 fibroblast cytotoxicity, dose response, cytotoxicity control, cell-based, fluorescence, Alamar Blue, secondary assay (AID 2327); type: functional;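 further: NIH-3T3 mouse fibroblasts cultured with fluconazole at 8 µg/mL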
BJ [4] = experiment: cytotoxicity toward BJ-TERT-LT-ST fibroblasts, dose response, cell-based, RAS-independent, luminescence (AID 1935); type: functional; conditions: Homo sapiens;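 further: BJ fibroblasts immortalized with TERT plus LT and ST oncogenes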
[5] = nonselective inhibitors of cellular cAMP signaling, dose response, counter-screen for MC4R biased antagonist project, cell-based, TR-FRET cAMP detection (AID 602305); type: functional;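 further: U2OS cells stimulated with forskolin near its EC80 as the cAMP inducer; potency is for inhibition of forskolin-stimulated cAMP signaling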
Paired box protein Pax-8 = Paired box protein Pax-8 (Homo sapiens, UniProt Q06710); experiment: inhibitors of PAX8-driven TPO luciferase reporter, dose response, RMG-I cells, cherry-pick (AID 687027); type: functional, cell-based;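 further: luciferase reporter driven by Pax8 target thyroperoxidase promoter measured by SteadyGlo luminescence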
[6] = growth suppression of PTEN-null colon cells, dose response, cell-based, HCT116 PTEN knockout (AID 1047); type: functional;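 further: HCT116 colon tumor cells with PTEN knocked out; cells exposed to compound for 60 hours before readout; potency for loss of cell viability measured by luminescence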
[7] = inhibitors of SNCA 5'UTR-driven reporter translation, confirmation, H4 neuroglioma cells, luminescence (AID 1988); type: functional, cell-based
Melanocortin receptor 4 = Melanocortin receptor 4 (Homo sapiens, UniProt P32245); experiment: MC4R antagonist potency on cAMP, dose response, cell-based, TR-FRET, biased antagonists (AID 602298); type: functional;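 further: antagonist potency against agonist-stimulated cAMP production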
[8] = cytotoxicity toward DRD oncogenic fibroblasts, dose response, cell-based, non-viral oncogenic, luminescence (AID 1934); type: functional; conditions: Homo sapiens
[9] = inhibitors of firefly luciferase expression or activity, dose response, H4 neuroglioma cells, luminescence (AID 1990); type: functional, cell-based
BJ [10] = experiment: cells; type: functional, cell-based; conditions: Homo sapiens
BJ [11] = experiment: cytotoxicity toward BJ-TERT fibroblasts, dose response, cell-based, RAS-independent, luminescence (AID 1933); type: functional; conditions: Homo sapiens
[12] = Luminescence-based dose response cell-based high throughput screening assay for cytotoxic compounds using the IEC-6 intestinal epithelial cell line. [Related pubchem assays: 1858 (Summary AID.), 1825 (Counterscreen.), 1907 (Confirmation screen.)]; type: functional
[13] = C. albicans growth with fluconazole, confirmation, fluorescence, retest (AID 2467); type: functional, cell-based
[14] = growth suppression of beta-catenin-knockout colon cells, dose response, cell-based, HCT116, human colon tumor (AID 1045); type: functional;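 further: HCT116 colon tumor cells with beta catenin knocked out; cells exposed to compound for 60 hours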
[15] = target: T3, Serine/threonine-protein phosphatase (Candida dubliniensis (strain CD36 / CBS 7987 / NCPF 3949 / NRRLY-17841) (Yeast), UniProt B9W6M3); experiment: calcineurin pathway inhibitors in yeast reporter, dose response, S. cerevisiae, CDRE-lacZ, luminescence, secondary (AID 2388); type: functional, cell-based;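 further: yeast reporter cells carrying a calcineurin-responsive lacZ construct stimulated with calcium chloride; luminescent beta-galactosidase reporter signal in whole cells rather than isolated phosphatase activity; potency for inhibition where a drop in reporter signal means calcineurin blockade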
T3 sequence (B9W6M3 whole entry): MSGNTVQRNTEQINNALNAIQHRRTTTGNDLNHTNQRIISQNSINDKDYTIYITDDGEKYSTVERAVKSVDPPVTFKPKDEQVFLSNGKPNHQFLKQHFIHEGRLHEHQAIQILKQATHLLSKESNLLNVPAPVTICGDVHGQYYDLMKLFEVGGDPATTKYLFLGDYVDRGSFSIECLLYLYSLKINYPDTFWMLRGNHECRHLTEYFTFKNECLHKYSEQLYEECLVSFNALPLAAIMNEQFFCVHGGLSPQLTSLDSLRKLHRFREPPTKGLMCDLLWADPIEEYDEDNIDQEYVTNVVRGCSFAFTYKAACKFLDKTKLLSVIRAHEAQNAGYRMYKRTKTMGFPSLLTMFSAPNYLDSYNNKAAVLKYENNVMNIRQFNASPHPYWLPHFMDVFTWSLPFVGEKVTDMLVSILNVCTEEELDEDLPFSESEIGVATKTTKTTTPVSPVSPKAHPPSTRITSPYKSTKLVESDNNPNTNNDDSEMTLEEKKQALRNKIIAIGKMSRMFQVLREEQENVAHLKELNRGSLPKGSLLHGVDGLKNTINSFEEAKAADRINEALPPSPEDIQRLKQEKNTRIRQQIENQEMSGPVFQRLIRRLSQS

[16] = Luminescence Cell-Based Dose Response HTS to Identify Inhibitors of 5'UTR Stem-Loop Driven Prion Protein mRNA Translation in H4 Neuroglioblastoma Cells. [Related pubchem assays: 1827 (Project Summary), 1813 (Primary HTS)]; type: functional
[17] = target: ATP-dependent molecular chaperone HSP82 (Candida albicans (strain WO-1) (Yeast), UniProt C4YTQ8); experiment: loss of DOC-induced GRE-beta-galactosidase reporter signal, dose response, Hsp90 inhibitor project, S. cerevisiae, luminescence (AID 2400); type: functional, cell-based;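 further: beta-galactosidase luminescence from glucocorticoid response element reporter as proxy for Hsp90 function; inhibitor potency where signal loss means Hsp90 inhibition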
BJ [18] = experiment: cytotoxicity toward Ras-transformed BJeLR fibroblasts, dose response, cell-based, alamar blue fluorescence, cherrypicked samples (AID 2631); type: functional; conditions: Homo sapiens;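 further: confirmatory dose-response assay in RAS-dependent BJ fibroblasts engineered with TERT, LT and ST, with cytotoxicity read by fluorescence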

T1 sequence (Q92731 whole entry): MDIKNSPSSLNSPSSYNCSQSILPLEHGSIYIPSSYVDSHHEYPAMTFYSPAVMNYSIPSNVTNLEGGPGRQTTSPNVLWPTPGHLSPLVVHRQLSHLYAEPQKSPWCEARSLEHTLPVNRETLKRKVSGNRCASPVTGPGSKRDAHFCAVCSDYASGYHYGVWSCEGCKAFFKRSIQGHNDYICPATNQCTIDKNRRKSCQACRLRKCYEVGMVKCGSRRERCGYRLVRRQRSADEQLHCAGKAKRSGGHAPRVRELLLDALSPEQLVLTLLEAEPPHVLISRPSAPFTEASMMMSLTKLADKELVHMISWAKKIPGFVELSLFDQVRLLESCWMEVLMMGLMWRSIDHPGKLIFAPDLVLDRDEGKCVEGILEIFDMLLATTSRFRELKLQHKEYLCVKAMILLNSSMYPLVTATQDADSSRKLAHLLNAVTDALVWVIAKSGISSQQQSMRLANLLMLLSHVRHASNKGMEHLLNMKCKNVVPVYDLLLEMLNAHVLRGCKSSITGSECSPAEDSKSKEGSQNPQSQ
Sequence of ATP-dependent molecular chaperone HSP82 (C4YTQ8 whole entry): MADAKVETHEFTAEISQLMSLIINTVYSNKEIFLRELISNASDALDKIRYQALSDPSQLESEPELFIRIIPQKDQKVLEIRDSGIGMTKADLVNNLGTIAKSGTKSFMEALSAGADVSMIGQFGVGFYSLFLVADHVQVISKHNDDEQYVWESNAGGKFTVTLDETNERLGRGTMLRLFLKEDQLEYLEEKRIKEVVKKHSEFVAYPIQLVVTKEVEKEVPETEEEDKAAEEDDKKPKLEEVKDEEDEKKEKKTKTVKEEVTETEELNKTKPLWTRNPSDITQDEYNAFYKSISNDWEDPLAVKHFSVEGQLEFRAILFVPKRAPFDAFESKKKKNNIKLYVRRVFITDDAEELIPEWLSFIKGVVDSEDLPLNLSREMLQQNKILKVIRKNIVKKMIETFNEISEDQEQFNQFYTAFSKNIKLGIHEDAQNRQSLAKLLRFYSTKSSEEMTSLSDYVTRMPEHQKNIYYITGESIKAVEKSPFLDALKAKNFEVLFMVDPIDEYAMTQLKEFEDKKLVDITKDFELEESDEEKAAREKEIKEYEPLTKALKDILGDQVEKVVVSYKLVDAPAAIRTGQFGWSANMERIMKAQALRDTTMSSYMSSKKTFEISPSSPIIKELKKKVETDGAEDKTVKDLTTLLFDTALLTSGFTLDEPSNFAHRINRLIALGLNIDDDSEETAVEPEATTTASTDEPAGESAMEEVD
Sequence of Paired box protein Pax-8 (Q06710 whole entry): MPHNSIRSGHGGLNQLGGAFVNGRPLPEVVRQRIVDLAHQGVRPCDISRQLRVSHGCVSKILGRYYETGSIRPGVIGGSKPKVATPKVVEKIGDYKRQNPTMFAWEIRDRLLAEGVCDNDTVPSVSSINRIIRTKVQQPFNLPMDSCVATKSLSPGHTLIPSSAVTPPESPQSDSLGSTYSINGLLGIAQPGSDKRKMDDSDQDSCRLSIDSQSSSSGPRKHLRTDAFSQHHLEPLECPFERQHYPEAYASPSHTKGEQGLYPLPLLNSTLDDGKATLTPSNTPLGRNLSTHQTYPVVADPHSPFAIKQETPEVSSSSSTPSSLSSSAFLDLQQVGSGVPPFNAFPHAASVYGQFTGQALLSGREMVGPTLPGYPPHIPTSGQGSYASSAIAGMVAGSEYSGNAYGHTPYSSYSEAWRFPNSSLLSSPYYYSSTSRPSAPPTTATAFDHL
Sequence of Melanocortin receptor 4 (P32245 whole entry): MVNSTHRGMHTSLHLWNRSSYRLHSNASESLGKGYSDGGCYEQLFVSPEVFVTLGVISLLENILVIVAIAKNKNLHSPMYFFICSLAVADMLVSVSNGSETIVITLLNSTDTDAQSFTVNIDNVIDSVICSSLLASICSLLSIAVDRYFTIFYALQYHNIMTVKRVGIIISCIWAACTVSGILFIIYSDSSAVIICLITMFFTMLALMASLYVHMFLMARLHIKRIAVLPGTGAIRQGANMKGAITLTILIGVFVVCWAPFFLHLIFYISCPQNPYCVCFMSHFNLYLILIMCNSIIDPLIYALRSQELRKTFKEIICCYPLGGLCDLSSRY

O=Cc1ccc2oc3nc4n(c(=O)c3c(=O)c2c1)CCCS4
IC50 (Estrogen receptor beta [1]): > 50000 nM (not active) | IC50 (Estrogen receptor beta [2]): > 50000 nM (not active) | IC50 (Estrogen receptor): 17800 nM (active)

O=C(NC(Nc1nc2ccc([N+](=O)[O-])cc2s1)(C(F)(F)F)C(F)(F)F)c1ccccc1Cl
EC50 [3]: 12300 nM (active) | EC50 (BJ [4]): 5650 nM (inconclusive) | IC50 [5]: > 64600 nM (inactive) | AC50 (Paired box protein Pax-8): 676 nM (active) | EC50 [6]: 234 nM (active) | EC50 [7]: 242 nM (active) | IC50 (Melanocortin receptor 4): > 64600 nM (inactive) | EC50 [8]: 1810 nM (active) | EC50 [9]: 266 nM (active) | EC50 (BJ [10]): 1410 nM (active) | EC50 (BJ [11]): 1350 nM (active) | IC50 [12]: 1640 nM (active) | EC50 [13]: 758 nM (active) | EC50 [14]: 242 nM (active) | EC50 [15]: > 180000 nM (inactive) | EC50 [16]: 6530 nM (active) | EC50 [17]: 22600 nM (active) | EC50 (BJ [18]): 1110 nM (active)
